Earlier results in US20150272124A1, “ANTIMICROBIAL COMPOSITIONS CONTAINING CATIONIC ACTIVE INGREDIENTS” (Ecolab USA Inc., priority 2014, published 2015).

Conditions: calcium-chelating agent complex, logarithmic form

Log Stability constant, Ca2+: 5.2
Compound: O=C(O)CC(NC(CC(=O)O)C(=O)O)C(=O)O (stereo not shown) [IDS, Iminodisuccinic Acid]
